Several values for one entry are separate records, joined by “and”; a condition that tells them apart may be missing. Equal values may be shown once. Read-outs that look alike come from different tables or passages of the source.

Data set [1] relates to 77 cells. The data set can be described thus: Cytostatic activity on 77 cells. The format is cell-based, rat. The note with it: for IC50: 77 cells, after controls doubled three times; for 77/KB: ratio of IC50 values ± standard error of the quotient. As to the method: (§1) All cells were grown in Eagle's minimum essential medium supplemented with 10% fetal bovine serum with the exception of HL-60 and K562-4 cells which were grown in RPMI 1640 medium supplemented with 10% fetal bovine serum. The KB and MH1 C1 cells, from a human nasopharyngeal carcinoma and rat hepatoma, respectively, were from American Type Culture Collection. The ChaGo cells, a human lung carcinoma, was generously provided by Dr. A. H. Tashjian. The human promyeloblastic leukemia cells, K562-4 were kindly supplied by Dr. Bismarck Lozzio. HL-60 cells, a human promyelocytic leukemia, and P388 cells, a mouse leukemia, were obtained from Dr. Y.-C. Cheng. The 77 cells were put into culture by us by excising the 7777, Morris hepatoma from a rat graciously supplied by the late Dr. H. P. Morris.
(§2) Cells were transferred or removed from monolayers for counting after a one or two minute incubation with 0.02% sodium ethylenediamine tetraacetate in phosphate-buffered saline to dislodge the cells. Flasks were seeded at a density of 1×10^3 cells per cm^2 or 2×10^4 per milliliter for suspension cultures. The HL-60 and K562-4 suspension cultures were used about 24 hours after seeding. The compounds to be tested were diluted to various concentrations and added to the monolayer cultures. All of the test compounds were dissolved in 10% dimethyl sulfoxide (DMSO) at concentrations that would give a final DMSO concentration of 0.1%. Control flasks contained 0.1% DMSO. Control cell replication was followed until approximately three doublings had occurred, and then all of the treated cells were counted.
(§3) The KB cells represented cells with low alkyl cleavage activity (less than the detectable level of 0.1-0.2 units per milligram protein by our assay procedure) and the 77 cells represented cells similar to normal cells with relatively high alkyl cleavage activity (1.6 units per milligram of protein). Our value for the cleavage activity of cultured 77 cells agrees well with the value of 1.4 units per milligram of protein reported by Soodsma et al, Cancer Res. 30, 309 (1970), for freshly excised 7777 Morris hepatoma tissue. In further confirmation of our assay procedure, we obtained a value of 12.6±4.1 units per milligram of protein in excised rat liver compared to 7.3 units per milligram of protein in rat liver measured by Soodsma et al.

For data set [2], the system named is KB cells. The data set can be described thus: Cytostatic activity on KB cells. Format: cell-based. The note with it: Homo sapiens; KB cells, after controls doubled three times; read-out: IC50 KB. How it is done:
as §1, §2, §3

For data set [3], the system named is K562-4 cells. In words: Cytostatic activity on K562-4 cells. The note with it: Homo sapiens; K562-4 (printed X562-4). The format is cell-based. As to the method: as §1, §2
For data set [4], the system named is MH1 C1 cells. In words: Cytostatic activity on MH1 C1 cells. The format is cell-based, rat. As to the method: as §1, §2
The test system of data set [5] is ChaGo cells. In words: Cytostatic activity on ChaGo cells. The format is cell-based, human. The note with it: Homo sapiens. As to the method:
as §1, §2

Data set [6] has as its system HIV-1. In words: HIV-1 plaque assay, inhibitor added 60 minutes after infection. Format: cell-based, human immunodeficiency virus type 1 (HIV-1). The text has this:
(§4) Dextran sulfate was used as a positive control. […] Plaques were counted at five days after infection.
(§5) By way of further background, in our assay HIV-1 syncytial plaques are seen as large, multicellular foci (10 to 25 nuclei/syncytium) that appear either brown and granular or clear. Since the number of HIV-1 syncytial plaques correlates with reverse transcriptase (RT) and p24 core antigen activity in the HIV-1 infected cell overlay fluids, the syncytial plaque assay can be used to quantify the amount of infectious virus. Reverse transcriptase activity was assayed according to a described procedure (B. J. Poeisz et al., Proc. Natl. Acad. Sci. (U.S.A.) […], 7415 (1980)). The activity of p24 core antigen induced by HIV-1 infection of CEM-SS cells was measured spectrophotometrically using the commercial Abbott EIA.
(§6) Compound E inhibited HIV-1 plaque count 43%, 83%, and 91% at concentrations of 0.2, 0.4, and 2.0 μM, respectively, compared to untreated controls. […] In other experiments addition of 0.2, 0.4 and 2.0 μM Compound E starting sixty minutes after HIV-1 infection inhibited HIV-1 plaque formation 28%, 59% and 97% respectively, compared to untreated controls.
(§7) Next investigated were the correlations of EL analog structure with anti-HIV-l and anti-cell growth. The experimental method used six serial two-fold dilutions of EL that spanned concentrations above and below a concentration that inhibits HIV-1 plaque count, cell growth (^3 H-TdR uptake into cell DNA) or in vitro PKC activity by 50% (inhibitory concentration50 =IC50) compared to an appropriate mock treated control. Table 7 summarizes data on IC50 of phosphorus and non-phosphorus compounds for HIV-1 plaque formation and cell growth.
^1 Serial 2fold dilutions of compounds are used. HIV1 plaque formatio
is measured in CEMSS cell monolayers by having compound present starting
sixty minutes after virus infection. IC50 values for HIV1 plaque
formation are x ± one SD., N = 4. CEMSS cell growth is measured in […]

The subject of data set [7] is HIV-1. In words: HIV-1 plaque assay, inhibitor added 30 minutes before infection. Format: cell-based, human immunodeficiency virus type 1 (HIV-1).
Description: as §4, §5, §6

In data set [8] the test system is HL60 human leukemia cell line. The data set can be described thus: HL60 cell growth inhibition (trypan blue, 48 h). Format: cell-based. The note with it: for IC50: HL60, 48 hours. As to the method:
A number of the compounds disclosed herein have been tested against the HL60 human leukemia cell line to assess their cytotoxic potential. These analogs were investigated in parallel with ET-18-OMe which was used as the reference compound. The methodologies used in this investigation were the same as described in A. Noseda, M. Berens, C. Piantadosi, and E. J. Modest, Lipids 22, 878-883, 1987. In brief, HL60 cells at a concentration of […] were incubated in wells with one milliliter medium with the experimental drug in parallel with the same concentration of cells with ET-18-OMe (standard) or EtOH (control). After 48 hours of incubation the cells were counted using the trypan blue dye exclusion technique to determine the effect of the drug on cell growth. The experimental drug and ET-18-OMe were tested at the same concentrations, e.g., 10, 5, 2.5 and 1.25 μM.

The test system of data set [9] is CEM-SS cells. The data set can be described thus: CEM-SS cell growth (3H-TdR uptake). Format: cell-based. The note with it: Homo sapiens, 48 hours, N = 3, read-out: Inhibitory Concentration50 CEM-SS Cell Growth.
Description: as §7
formation are x ± one SD., N = 4. CEMSS cell growth is measured in
suspension cultures by treating the cells with compound for 48 hours at
37° C. and then adding 1 μCi of ^3 HTdR (S.A. = 20 Ci/mmole
for 8 hours at 37° C. to measure DNA synthesis. IC50 values
for CEMSS growth are x of a representative experiment, N = 3.

In data set [10] the test system is reverse transcriptase. In words: Reverse transcriptase activity in HIV-1 infected CEM-SS cells. The note with it: for reverse transcriptase activity: in words; for activity at 0.2 µM / activity at 0.4 µM / activity at 2 µM: Human immunodeficiency virus 1, CEM-SS, read-out: RT Activity, % of Control. Format: cell-based, human immunodeficiency virus type 1 (HIV-1). As to the method:
as §5
(§8) In brief, CEM-SS cells were infected with HIV-1. At various times after infection (3, 6, 8, 10, 13 days) the overlay fluids were replaced with fresh medium. Overlay fluids replaced on days 8, 10 and 13 were saved at -80° C. to measure HIV-1 plaque forming units according to our described protocol above and RT activity (described by Poiesz et al., Proc. Natl. Acad. Sci. U.S.A. 77, 7415 (1980). Results are given in Table 8 below.

In data set [11] the test system is HIV-1. The data set can be described thus: Infectious HIV-1 multiplication (plaque forming units). The note with it: for infectious virus production: in words; for activity at 0.2 µM / activity at 0.4 µM / activity at 2 µM: read-out: Plaque Forming Units, % of Control. The format is cell-based, human immunodeficiency virus type 1 (HIV-1). As to the method: as §8

[12] abbreviates: Human immunodeficiency virus 1, 192 h, day 8.
Where [13] appears, read: Human immunodeficiency virus 1, 240 h, day 10.
The mark [14] stands for this setting: Human immunodeficiency virus 1, 312 h, day 13.

For `CCCCCCCCCCCCCCCCCCOCCC[N+](C)(C)CCO.[I-]` [XIII, 3-octadecyloxy-N,N-dimethyl-N-β-hydroxyethyl-1-propyl ammonium iodide], the IC50 in [1] amounted to 2.5 ± 0.9 µM; in data set [2], 0.7 ± 0.08 µM; in [3] it was 1.4 µM; in [4] (Rattus norvegicus, MH1C1, MH1 C1) it was 2.9 µM. In addition, the 77/KB in data set [1] amounted to 4.3 ± 1.60. Further, the “sensitivity of MH1 C1 cells relative to 77 cells” value in data set [4] (MH1 C1 vs 77 cells) is “two to three times less sensitive to growth inhibition than 77 cells”.
Consider `CCCCCCCCCCCCCCCCOCC(C[N+](C)(C)CCO)OC(C)=O.[I-]` (racemic) [XI, (±)-3-hexadecyloxy-2-acetoxy-N,N-dimethyl-N-β-hydroxyethyl-1-propyl ammonium iodide], for which the IC50 worked out at 1.35 ± 0.64 µM in data set [1], 1.2 µM in data set [5], 0.43 ± 0.05 µM in data set [2] and 3.5 µM in data set [3]. Also, in [1], the 77/KB worked out at 3.1 ± 1.51.
As for `CCCCCCCCCCCCCCCCCCOCC(COP(=O)([O-])OCC[N+](C)(C)C)OC` (racemic) [ET-18-OMe, (±)-1-O-octadecyl-2-O-methylglycero-3-phosphocholine, reference compound], the anti-HIV-1 activity result in data set [6] (HIV-1 plaque formation, in words) is listed as “potent anti-HIV activity”. For the same compound, the inhibition (usually how much of the control response was suppressed) at 2 µM came to 64% in data set [6] (Human immunodeficiency virus 1, 1 h) and 45% in data set [7] (Human immunodeficiency virus 1, 2.0 μM, 30 minutes before infection, Table 6). Also, the inhibition at 0.2 µM was found to be 0% in data set [6] (Human immunodeficiency virus 1, 1 h, 0.2 μM, 60 minutes after infection) and 0% in data set [7] (Human immunodeficiency virus 1, 0.2 μM, 30 minutes before infection, Table 6). The inhibition at 0.4 µM in data set [6] (Human immunodeficiency virus 1, 1 h, 0.4 μM, 60 minutes after infection) amounted to 0%; in data set [7] (Human immunodeficiency virus 1, 0.4 μM, 30 minutes before infection, Table 6, read-out: Inhibition (%)), 9%. Also, the IC50 in data set [6] (Human immunodeficiency virus 1, CEM-SS monolayers, compound from sixty minutes after infection, N = 4, read-out: Inhibitory Concentration50 HIV-1 Plaque Formation) is 1.4 ± 0.45 µM; in [8] (ET-18-OMe reference run in parallel with the analog of the line, 2880 min, read-out: ID50, ET-18-OMe), 1.9 µM and 2.3 µM and 2.2 µM; in [8] (Homo sapiens, HL-60, 48 h, ET-18-OMe reference run in parallel with the analog of the line, read-out: ID50, ET-18-OMe) it was 1.7 µM; in data set [8] (Homo sapiens, HL-60, 48 h, read-out: ID50 (the source's name)), 2.5 µM; in [9] it was 4.4 µM. In data set [7] (added before or after infection, in words), the “antiviral activity (HIV-1 plaque formation)” value is on record as “antiviral activity”. In addition, the “cytotoxic activity against HL60” value in [8] (HL60, in words) is given as “shows an activity that is consistent with previous reports against the cell line tested”. The reverse transcriptase activity entry was “reverse transcriptase activity increases” in data set [10] (13 days); “markedly inhibit infectious virus production and reverse transcriptase activity in a dose-dependent manner” in data set [10] (between 8 and 10 days). The activity at 0.2 µM in [10] (192 h, day 8) turned out to be 54%; in data set [10] (240 h, day 10), 192%; in [10] (312 h, day 13), 94%; in data set [11] (setting [12]), 395%; in data set [11] (setting [13]), 287%; in data set [11] (setting [14]), 89%. In addition, the activity at 0.4 µM in data set [10] (192 h, day 8) turned out to be 15%; in [10] (240 h, day 10) it was 90%; in data set [10] (312 h, day 13), 161%; in data set [11] (setting [12]), 25%; in data set [11] (setting [13]), 30%; in [11] (setting [14]), 35%. Besides, the activity at 2 µM worked out at 6% in [10] (192 h, day 8); 6% in data set [10] (240 h, day 10); 174% in data set [10] (312 h, day 13); 0% in [11] (setting [12]); 33% in data set [11] (setting [13]); 30% in data set [11] (setting [14]). Also, the infectious virus production entry in data set [11] (13 days) is “infectious virus production is still inhibited”; in [11] (between 8 and 10 days), “markedly inhibit infectious virus production”.

The values above are taken from US5614548A, “Quaternary amine containing ether or ester lipid derivatives and therapeutic compositions” (priority 1994, dated 1997).
